From patent US4477443A, “Tylosin derivatives, their preparation and pharmaceutical compositions containing them” (Zaidan Hojin Biselbutsu Kagaku Kenkyu Kai (Microbial …, priority 1981, dated 1984)
In brackets after ≈: the same amount, converted by molar mass. Read-outs that look alike come from different tables or passages of the source.

Legend:
Assay in all cases: antimicrobial activity (MIC), Table II
Assay type in all cases: cell-based
Staph. aureus ATCC 6538P = conditions: Staphylococcus aureus, ATCC6538P
B. cereus = conditions: Bacillus cereus; B. cereus; read-out: MIC
[1] = system: Staph. epidermidis IID 866; conditions: Staphylococcus epidermidis, IID866
B. subtilis ATCC 6633 = conditions: Bacillus subtilis, ATCC6633; B. subtilis ATCC 6633; read-out: MIC
Staph. aureus 226 = conditions: Staphylococcus aureus
Staph. aureus KC-11 = conditions: Staphylococcus aureus, KC11; Staph. aureus KC-11; read-out: MIC
[2] = Staph. aureus ATCC 6538P, read-out: MIC
[3] = Staph. aureus 226, read-out: MIC

| SMILES | MIC (Staph. aureus ATCC 6538P; [2]) | MIC (B. cereus) | MIC [1] | MIC (B. subtilis ATCC 6633) | MIC (Staph. aureus 226; [3]) | MIC (Staph. aureus KC-11) | MIC (Staph. aureus ATCC 6538P) | MIC (Staph. aureus 226; 226) |
| --- | --- | --- | --- | --- | --- | --- | --- | --- |
| CCC1OC(=O)CC(O)C(C)C(OC2OC(C)C(O)C(N(C)C)C2O)C(CC=O)CC(C)C(=O)C=CC(C)=CC1CN1CCCCCC1 (stereo not drawn) [Example 24, 23-deoxy-23-hexamethyleneiminomycaminosyl tylonolide] | – | 0.39 µg/mL (≈ 0.574 µM) | 0.39 µg/mL (≈ 0.574 µM) | 0.78 µg/mL (≈ 1.15 µM) | – | 0.78 µg/mL (≈ 1.15 µM) | 0.39 µg/mL (≈ 0.574 µM) | ≤ 0.2 µg/mL |
| CCC1OC(=O)CC(O)C(C)C(OC2OC(C)C(O)C(N(C)C)C2O)C(CC=O)CC(C)C(=O)C=CC(C)=CC1CN(CC)C(=O)c1ccco1 (stereo not drawn) [Example 43, 23-deoxy-23-N-(2-furoyl)ethylaminomycaminosyl tylonolide] | 0.78 µg/mL (≈ 1.09 µM) | 0.39 µg/mL (≈ 0.543 µM) | 0.78 µg/mL (≈ 1.09 µM) | 0.78 µg/mL (≈ 1.09 µM) | 0.78 µg/mL (≈ 1.09 µM) | 0.78 µg/mL (≈ 1.09 µM) | – | – |
| CCC1OC(=O)CC(O)C(C)C(OC2OC(C)CC(N(C)C)C2O)C(CC=O)CC(C)C(=O)C=CC(C)=CC1CN(CC)C(=O)c1ccco1 (stereo not drawn) [Example 45, 23,4'-dideoxy-23-N-(2-furoyl)ethylaminomycaminosyl tylonolide] | 0.78 µg/mL (≈ 1.11 µM) | 0.39 µg/mL (≈ 0.555 µM) | 0.39 µg/mL (≈ 0.555 µM) | 0.39 µg/mL (≈ 0.555 µM) | 0.78 µg/mL (≈ 1.11 µM) | 0.78 µg/mL (≈ 1.11 µM) | – | – |
| CCC1OC(=O)CC(O)C(C)C(OC2OC(C)CC(N(C)C)C2O)C(CC=O)CC(C)C(=O)C=CC(C)=CC1CN(CC)C(=O)c1cccnc1 (stereo not drawn) [Example 46, 23,4'-dideoxy-23-N-nicotinoylethylaminomycaminosyl tylonolide] | 1.56 µg/mL (≈ 2.19 µM) | 0.39 µg/mL (≈ 0.546 µM) | 0.78 µg/mL (≈ 1.09 µM) | 1.56 µg/mL (≈ 2.19 µM) | 1.56 µg/mL (≈ 2.19 µM) | 1.56 µg/mL (≈ 2.19 µM) | – | – |
| CCC1OC(=O)CC(O)C(C)C(OC2OC(C)CC(N(C)C)C2O)C(CC=O)CC(C)C(=O)C=CC(C)=CC1CN(CC)C(C)=O (stereo not drawn) [Example 47, 23-N-acetylethylamino-23,4'-dideoxymycaminosyl tylonolide] | 0.78 µg/mL (≈ 1.2 µM) | 0.39 µg/mL (≈ 0.599 µM) | 0.78 µg/mL (≈ 1.2 µM) | 0.78 µg/mL (≈ 1.2 µM) | 1.56 µg/mL (≈ 2.4 µM) | 0.78 µg/mL (≈ 1.2 µM) | – | – |
| CCC1OC(=O)CC(O)C(C)C(OC2OC(C)CC(N(C)C)C2O)C(CC=O)CC(C)C(=O)C=CC(C)=CC1COC(=O)CN(C)C (stereo not drawn) [Example 51, 23-O-dimethylaminoacetyl-4'-deoxymycaminosyltylonolide] | 0.78 µg/mL (≈ 1.17 µM) | 0.39 µg/mL (≈ 0.585 µM) | 0.39 µg/mL (≈ 0.585 µM) | 0.78 µg/mL (≈ 1.17 µM) | 0.78 µg/mL (≈ 1.17 µM) | 0.78 µg/mL (≈ 1.17 µM) | – | – |

The next lines start with results.

| MIC (Staph. aureus ATCC 6538P; [2]) | MIC (B. cereus) | MIC [1] | MIC (B. subtilis ATCC 6633) | MIC (Staph. aureus 226; [3]) | MIC (Staph. aureus KC-11) | SMILES | MIC (Staph. aureus ATCC 6538P) | MIC (Staph. aureus 226; 226) |
| --- | --- | --- | --- | --- | --- | --- | --- | --- |
| 0.78 µg/mL (≈ 1.25 µM) | 0.39 µg/mL (≈ 0.626 µM) | 0.78 µg/mL (≈ 1.25 µM) | 0.78 µg/mL (≈ 1.25 µM) | 0.78 µg/mL (≈ 1.25 µM) | 0.78 µg/mL (≈ 1.25 µM) | CCC1OC(=O)CC(O)C(C)C(OC2OC(C)CC(N(C)C)C2O)C(CC=O)CC(C)C(=O)C=CC(C)=CC1CNC(C)C (stereo not drawn) [Example 21, 23,4'-dideoxy-23-isopropylaminomycaminosyl tylonolide] | – | – |
| 0.78 µg/mL (≈ 1.22 µM) | 0.39 µg/mL (≈ 0.612 µM) | 0.78 µg/mL (≈ 1.22 µM) | 0.78 µg/mL (≈ 1.22 µM) | 0.78 µg/mL (≈ 1.22 µM) | 0.78 µg/mL (≈ 1.22 µM) | CCC1OC(=O)CC(O)C(C)C(OC2OC(C)CC(N(C)C)C2O)C(CC=O)CC(C)C(=O)C=CC(C)=CC1CNC(C)(C)C (stereo not drawn) [Example 22, 23,4'-dideoxy-23-(t-butylamino)mycaminosyl tylonolide] | – | – |
| 0.78 µg/mL (≈ 1.2 µM) | 0.78 µg/mL (≈ 1.2 µM) | 0.78 µg/mL (≈ 1.2 µM) | 1.56 µg/mL (≈ 2.4 µM) | 0.78 µg/mL (≈ 1.2 µM) | 0.78 µg/mL (≈ 1.2 µM) | CCC1OC(=O)CC(O)C(C)C(OC2OC(C)CC(N(C)C)C2O)C(CC=O)CC(C)C(=O)C=CC(C)=CC1CNCC(C)(C)C (stereo not drawn) [Example 23, 23,4'-dideoxy-23-neopentylaminocaminosyl tylonolide] | – | – |
| 0.78 µg/mL (≈ 1.15 µM) | 0.39 µg/mL (≈ 0.573 µM) | 0.78 µg/mL (≈ 1.15 µM) | 0.78 µg/mL (≈ 1.15 µM) | 0.78 µg/mL (≈ 1.15 µM) | 1.56 µg/mL (≈ 2.29 µM) | CCC(=O)N(CC)CC1C=C(C)C=CC(=O)C(C)CC(CC=O)C(OC2OC(C)C(O)C(N(C)C)C2O)C(C)C(O)CC(=O)OC1CC (stereo not drawn) [Example 42, 23-deoxy-23-N-ethylpropionylaminomycaminosyl tylonolide] | – | – |
